Results on 24 molecules are retold here after patent publication US11591341B2 (ALIGOS THERAPEUTICS, INC., priority 2019, dated 2023).

In this assay the test system is HBV. The experiment in a line: HBV-DNA Antiviral Assay Using HepG2.117 Cells (intracellular HBV DNA by qPCR). The format is cell-based, hepatitis B virus (genotype D). The following applies: Hepatitis B virus, HepG2.117. The procedure, abridged:
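Endpoint: qPCR copy number of intracellular HBV DNA after 3-day compound exposure, with inhibition set relative to the 2% DMSO control. The cells were doxycycline-free HepG2.117 carrying a Tet-off genotype D genome, dosed at nine 4-fold dilutions. A duplicate plate gave ATP-based viability (CC50).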
In general terms: Quantitative PCR measures a nucleic acid by following its amplification.

The term EC50 denotes the midpoint of the concentration-response curve. On to `Cc1ccc(-n2c(C(=O)NCc3ccccc3)c3n(c2=O)CCN(C(=O)c2ccc(Br)c(Cl)c2)C3)cc1` [Example 123, N-benzyl-7-(4-bromo-3-chloro-benzoyl)-3-oxo-2-(p-tolyl)-6,8-dihydro-5H-imidazo[1,5-a]pyrazine-1-carboxamide], for which the concentration for a half-maximal effect (EC50) lay in the range of 100 to 500 nM.

In turn, `C[C@H]1Cn2c(c(C(=O)NCc3ccccc3-c3ncccn3)n(-c3ccc(OC4CC4)cc3)c2=O)CN1C(=O)c1ccc(Br)c(C#N)c1` (racemic) [Example 452, rac-(6S)-7-(4-bromo-3-cyano-benzoyl)-2-[4-(cyclopropoxy)phenyl]-6-methyl-3-oxo-N-[(2-pyrimidin-2-ylphenyl)methyl]-6,8-dihydro-5H-imidazo[1,5-a]pyrazine-1-carboxamide] had a concentration giving a half-maximal response (EC50) of less than 100 nM.

For the molecule `COc1ccc(-n2c(C(=O)NCc3ccccc3)c3n(c2=O)CCN(C(=O)c2ccc(Cl)c(Cl)c2)C3)c(C)c1` [Example 87, N-benzyl-7-(3,4-dichlorobenzoyl)-2-(4-methoxy-2-methyl-phenyl)-3-oxo-6,8-dihydro-5H-imidazo[1,5-a]pyrazine-1-carboxamide], the concentration for a half-maximal effect (EC50) is greater than 5000 nM.

As to `CC(C)Oc1ccc(-n2c(C(=O)N[C@@H](C)c3ccc(C#N)cc3)c3n(c2=O)CCN(C(=O)c2ccc(Br)c(Cl)c2)C3)cc1` (stereo in doubt) [Example 234, 7-(4-bromo-3-chloro-benzoyl)-2-(4-isopropoxyphenyl)-3-oxo-N-[rac-(1S)-1-(4-cyanophenyl)ethyl]-6,8-dihydro-5H-imidazo[1,5-a]pyrazine-1-carboxamide], the EC50 lay in the range of 100 to 500 nM.

The molecule `C[C@@H](NC(=O)c1c2n(c(=O)n1-c1ccc(OCC(F)(F)F)cc1)CCN(C(=O)c1ccc(Br)c(Cl)c1)C2)c1ccc(OC(F)(F)F)cc1F` (racemic) [Example 292, 7-(4-bromo-3-chloro-benzoyl)-3-oxo-N-[rac-(1R)-1-[2-fluoro-4-(trifluoromethoxy)phenyl]ethyl]-2-[4-(2,2,2-trifluoroethoxy)phenyl]-6,8-dihydro-5H-imidazo[1,5-a]pyrazine-1-carboxamide] showed a concentration for a half-maximal effect (EC50) of 500 to 5000 nM.

The molecule `O=C(NCc1ccccc1)c1c2n(c(=O)n1-c1ccccn1)CCN(C(=O)c1ccc(Cl)c(Cl)c1)C2` [Example 78, N-benzyl-7-(3,4-dichlorobenzoyl)-3-oxo-2-(2-pyridyl)-6,8-dihydro-5H-imdiazo[1,5-a]pyrazine-1-carboxamide] came in with an EC50 greater than 5000 nM.

Regarding `COc1ccc(-n2c(C(=O)N[C@H](C)c3ccccc3F)c3n(c2=O)CCN(C(=O)c2ccc(Br)c(Cl)c2)C3)cc1` (stereo in doubt) [Example 161, 7-(4-bromo-3-chloro-benzoyl)-2-(4-methoxyphenyl)-3-oxo-N-[rac-(1R)-1-(2-fluorophenyl)ethyl]-6,8-dihydro-5H-imidazo[1,5-a]pyrazine-1-carboxamide], the EC50 was less than 100 nM.

The molecule `COc1ccc(CNC(=O)c2c3n(c(=O)n2-c2ccccc2)CCN(C(=O)c2ccc(Br)c(Cl)c2)C3)c(C)c1` [Example 39, 7-(4-bromo-3-chloro-benzoyl)-N-[(4-methoxy-2-methyl-phenyl)methyl]-3-oxo-2-phenyl-6,8-dihydro-5H-imidazo[1,5-a]pyrazine-1-carboxamide] registered an EC50 of 100 to 500 nM.

In turn, `C[C@@H](NC(=O)c1c2n(c(=O)n1-c1ccc(OC3CC3)cc1)CCN(C(=O)c1ccc(Br)c(Cl)c1)C2)c1ccc(OCC#N)cc1F` (stereo in doubt) [Example 342, 7-(4-bromo-3-chloro-benzoyl)-2-[4-(cyclopropxy)phenyl]-3-oxo-N-[rac-(1R)-1-[4-(cyanomethoxy)-2-fluoro-phenyl]ethyl]-6,8-dihdyro-5H-imidazo[1,5-a]pyrazine-1-carboxamide] came in with an EC50 of 100 to 500 nM.

As for `CC(C)Oc1ccc(-n2c(C(=O)NCc3ccccc3)c3n(c2=O)CCN(C(c2ccc(Br)c(Cl)c2)C(F)(F)F)C3)cc1` (racemic) [Example 241, N-benzyl-2-(4-isopropoxyphenyl)-3-oxo-7-[rac-(1S)-1-(4-bromo-3-chloro-phenyl)-2,2,2-trifluoro-ethyl]-6,8-dihydro-5H-imidazo[1,5-a]pyrazine-1-carboxamide], the 50% effective concentration (EC50) is greater than 5000 nM.

`C[C@H](Oc1ccc([C@H](C)NC(=O)c2c3n(c(=O)n2-c2ccc(OC4CC4)cc2)CCN(C(=O)c2ccc(Br)c(Cl)c2)C3)c(F)c1)C(N)=O` (stereo in doubt) [Example 358, 7-(4-bromo-3-chloro-benzoyl)-2-[4-(cyclopropoxy)phenyl]-3-oxo-N-[rac-(1S)-1-[2-fluoro-4-[rac-(1S)-2-amino-1-methyl-2-oxo-ethoxy]phenyl]ethyl]-6,8-dihydro-5H-imidazo[1,5-a]pyrazine-1-carboxamide]: the half-maximal effective concentration (EC50) was less than 100 nM.

For `COc1ccc(-n2c(C(=O)NCc3ccc(F)cc3)c3n(c2=O)CCN(C(=O)c2ccc(Cl)c(Cl)c2)C3)cc1` [Example 61, 7-(3,4-dichlorobenzoyl)-N-[(4-fluorophenyl)methyl]-2-(4-methoxyphenyl)-3-oxo-6,8-dihydro-5H-imidazo[1,5-a]pyrazine-1-carboxamide], the concentration giving a half-maximal response (EC50) fell in the range of 500 to 5000 nM.

Molecule `C[C@H](NC(=O)c1c2n(c(=O)n1-c1ccc(OCC(F)(F)F)cc1)CCN(C(=O)c1ccc(Br)c(Cl)c1)C2)c1ccc(OCC(N)=O)cc1-n1cccn1` (stereo in doubt) [Example 380, 7-(4-bromo-3-chloro-benzoyl)-3-oxo-N-[rac-(1S)-1-[4-(2-amino-2-oxo-ethoxy)-2-pyrazol-1-yl-phenyl]ethyl]-2-[4-(2,2,2-trifluoroethoxy)phenyl]-6,8-dihydro-5H-imidazo[1,5-a]pyrazine-1-carboxamide] had an EC50 greater than 5000 nM.

The molecule `N#Cc1cccc(-n2c(C(=O)NCc3ccccc3)c3n(c2=O)CCN(C(=O)c2ccc(Br)c(Cl)c2)C3)c1` [Example 44, N-benzyl-7-(4-bromo-3-chloro-benzoyl)-2-(3-cyanophenyl)-3-oxo-6,8-dihydro-5H-imidazo[1,5-a]pyrazine-1-carboxamide] registered an EC50 of 500 to 5000 nM.

Molecule `O=C(NCc1ccccc1)c1c2n(c(=O)n1-c1ccc(-n3cncn3)cc1)CCN(C(=O)c1ccc(Br)c(Cl)c1)C2` [Example 395, N-benzyl-7-(4-bromo-3-chloro-benzoyl)-3-oxo-2-[4-(1,2,4-triazol-1-yl)phenyl]-6,8-dihydro-5H-imidazo[1,5-a]pyrazine-1-carboxamide] registered an EC50 of 500 to 5000 nM.

`O=C(NCc1ccccc1)c1c2n(c(=O)n1-c1ccc(-n3ccnc3)cc1)CCN(C(=O)c1ccc(Br)c(Cl)c1)C2` [Example 312, N-benzyl-7-(4-bromo-3-chloro-benzoyl)-2-(4-imidazol-1-ylphenyl)-3-oxo-6,8-dihydro-5H-imidazo[1,5-a]pyrazine-1-carboxamide] yielded an EC50 of 500 to 5000 nM.

`COc1ccc(C(C)NC(=O)c2c3n(c(=O)n2-c2ccc(-n4cccn4)cc2)CCN(C(=O)c2ccc(Br)c(Cl)c2)C3)c(F)c1` (racemic) [Example 413, 7-(4-bromo-3-chloro-benzoyl)-3-oxo-2-(4-pyrazol-1-ylphenyl)-N-[rac-(1R)-1-(2-fluoro-4-methoxy-phenyl)ethyl]-6,8-dihydro-5H-imidazo[1,5-a]pyrazine-1-carboxamide]: the half-maximal effective concentration (EC50) was less than 100 nM.

In turn, `C[C@@H](NC(=O)c1c2n(c(=O)n1-c1ccc(OC3CC3)cc1)CCN(C(=O)c1ccc(Br)c(Cl)c1)C2)c1ccc(C#N)cc1F` (racemic) [Example 341, 7-(4-bromo-3-chloro-benzoyl)-2-[4-(cyclopropoxy)phenyl]-3-oxo-N-[rac-(1R)-1-(4-cyano-2-fluoro-phenyl)ethyl]-6,8-dihydro-5H-imidazo[1,5-a]pyrazine-1-carboxamide] came in with an EC50 of 500 to 5000 nM.

As to `COc1ccc(-n2c(C(=O)NCc3ccccc3)c3n(c2=O)CCN(C(=O)c2cc4c(Cl)cccc4[nH]2)C3)cc1` [Example 56, N-benzyl-7-(4-chloro-1H-indole-2-carbonyl)-2-(4-methoxyphenyl)-3-oxo-6,8-dihydro-H-imidazo[1,5-a]pyrazine-1-carboxamide], the EC50 fell in the range of 100 to 500 nM.

The molecule `CN(Cc1ccccc1)C(=O)c1c2n(c(=O)n1-c1ccccc1)CCN(C(=O)c1ccc(Br)c(Cl)c1)C2` [Example 27, N-benzyl-7-(4-bromo-3-chloro-benzoyl)-N-methyl-3-oxo-2-phenyl-6,8-dihydro-5H-imidazo[1,5-a]pyrazine-1-carboxamide] showed a half-maximal effective concentration (EC50) of 500 to 5000 nM.

As to `COc1ccc(-n2c(C(=O)N[C@H](C)C3CC3)c3n(c2=O)CCN(C(=O)c2ccc(Cl)c(Cl)c2)C3)cc1` (racemic) [Example 95, 7-(3,4-dichlorobenzoyl)-2-(4-methoxyphenyl)-3-oxo-N-[rac-(1R)-1-cyclopropylethyl]-6,8-dihydro-5H-imidazo[1,5-a]pyrazine-1-carboxamide], the 50% effective concentration (EC50) is greater than 5000 nM.

The molecule `Cn1ncc2cc(-n3c(C(=O)NCc4ccccc4)c4n(c3=O)CCN(C(=O)c3ccc(Br)c(Cl)c3)C4)ccc21` [Example 364, N-benzyl-7-(4-bromo-3-chloro-benzoyl)-2-(1-methylindazol-5-yl)-3-oxo-6,8-dihydro-5H-imidazo[1,5-a]pyrazine-1-carboxamide] showed an EC50 of 100 to 500 nM.

Molecule `C[C@H](NC(=O)c1c2n(c(=O)n1-c1ccc(OC3CC3)cc1)CCN(C(=O)c1ccc(Br)c(Cl)c1)C2)c1ccc(OCC#N)cc1F` (stereo in doubt) [Example 343, 7-(4-bromo-3-chloro-benzoyl)-2-[4-(cyclopropoxy)phenyl]-3-oxo-N-[rac-(1S)-1-[4-(cyanomethoxy)-2-fluoro-phenyl]ethyl]-6,8-dihydro-5H-imidazo[1,5-a]pyrazine-1-carboxamide] came in with an EC50 of 100 to 500 nM.

`C[C@H]1Cn2c(c(C(=O)NCc3ccccc3)n(-c3ccc(OC4CC4)cc3)c2=O)CN1C(=O)c1ccc(Br)c(Cl)c1` (racemic) [Example 302, rac-(6S)-N-benzyl-7-(4-bromo-3-chloro-benzoyl)-2-[4-(cyclopropoxy)phenyl]-6-methyl-3-oxo-6,8-dihydro-5H-imidazo[1,5-a]pyrazine-1-carboxamide] came in with an EC50 of 100 to 500 nM.
